Laboratory results taken from patent US12139520B2 (priority 2020, dated 2024).
Bridge positions count the residues as written; N and C are the ends. Square brackets hold non-standard residues; d marks the D form. Peptide text beside a SMILES is read from it. Hyp = O=C(O)[C@@H]1C[C@@H](O)CN1

Experiments:
hAM1 receptor = hAM1 receptor (Homo sapiens, UniProt O60895+Q16602); experiment: cAMP assay for in vitro receptor activation, hAM1-R; assay type: cell-based; conditions: cAMP assay, hAM1 receptor; read-out: hAM1R EC50
Sequence of hAM1 receptor (Q16602 23-461): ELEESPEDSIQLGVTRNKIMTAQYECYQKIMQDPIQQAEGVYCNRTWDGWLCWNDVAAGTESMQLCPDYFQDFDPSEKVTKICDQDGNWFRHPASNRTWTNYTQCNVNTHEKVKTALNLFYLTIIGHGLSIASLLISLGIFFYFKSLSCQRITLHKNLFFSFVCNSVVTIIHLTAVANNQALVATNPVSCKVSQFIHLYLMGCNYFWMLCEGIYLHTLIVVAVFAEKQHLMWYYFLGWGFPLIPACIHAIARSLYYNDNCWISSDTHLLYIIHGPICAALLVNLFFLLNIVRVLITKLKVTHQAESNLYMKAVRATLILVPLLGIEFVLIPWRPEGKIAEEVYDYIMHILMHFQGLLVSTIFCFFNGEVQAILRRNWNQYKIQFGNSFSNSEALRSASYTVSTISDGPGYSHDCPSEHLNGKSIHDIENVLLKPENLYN
Sequence of hAM1 receptor (O60895 43-175 partner): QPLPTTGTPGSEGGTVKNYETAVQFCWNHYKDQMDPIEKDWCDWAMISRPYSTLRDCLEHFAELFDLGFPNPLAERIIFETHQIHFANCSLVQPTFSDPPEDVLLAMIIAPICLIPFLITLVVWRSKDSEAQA
Summary of the method: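 cAMP accumulation was measured in a monoclonal cell line stably overexpressing the hAM1 receptor. Frozen aliquots were thawed and plated at 8000 cells/well in DPBS containing 0.05% casein and 0.5 mM IBMX.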

[1] = Physical stability of peptide analogues (Thioflavin T fibrillation); assay type: physicochemical; conditions: maximum ThT signal normalized between hAMY maximum and buffer background; 40° C., shaking, four days; pH 7 per table title
Summary of the method: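 Maximum ThT emission at 480 nm, after LOESS smoothing, is given as percent of the span from buffer background to hAMY. Conditions: 50 mM buffer at pH 4 or 7, 4 μM dye, 40 °C, repeated shaking, readings every 10 min for four days.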

SMILES	EC50 (hAM1 receptor) [µM]	Max ThT signal (%) [1] [%]
CC[C@H](C)[C@H](NC(=O)[C@H](CCC(N)=O)NC(=O)[C@H](Cc1c[nH]cn1)NC(=O)[C@H](C)NC(=O)[C@H](CC(C)C)NC(=O)[C@H](CCCNC(=N)N)NC(=O)[C@H](CCC(N)=O)NC(=O)[C@@H](NC(=O)[C@@H](NC(=O)[C@@H]1CSSC[C@H](NC(=O)CN)C(=O)N[C@@H](CCCNC(=N)N)C(=O)N[C@@H]([C@@H](C)O)C(=O)NCC(=O)N[C@@H]([C@@H](C)O)C(=O)N1)[C@@H](C)O)C(C)C)C(=O)N[C@@H](Cc1ccc(O)cc1)C(=O)N[C@@H](CCC(N)=O)C(=O)N[C@@H](Cc1ccccc1)C(=O)N[C@H](C(=O)N[C@@H](CC(N)=O)C(=O)N[C@@H](CCCCN)C(=O)N[C@@H](CC(=O)O)C(=O)N[C@@H](CCCCN)C(=O)N[C@@H](CC(=O)O)C(=O)N[C@@H](CC(N)=O)C(=O)N[C@H](C(=O)N[C@@H](C)C(=O)N1CCC[C@H]1C(=O)N[C@@H](CCCNC(=N)N)C(=O)N[C@@H](CO)C(=O)N[C@@H](CCCCN)C(=O)N[C@H](C(=O)N[C@@H](CO)C(=O)N1CCC[C@H]1C(=O)N[C@@H](CCC(N)=O)C(=O)N[C@@H](Cc1c[nH]c2ccccc12)C(=O)N1C[C@H](O)C[C@H]1C(N)=O)[C@@H](C)CC)C(C)C)[C@@H](C)O [compound 220] (H-GCRTGTCTVQRLAHQIYQFTNKDKDNVAPRSKISPQW[Hyp]-NH2; disulfide 2-7)	> 5	1.100
CC[C@H](C)[C@H](NC(=O)[C@H](CCC(N)=O)NC(=O)[C@H](Cc1c[nH]cn1)NC(=O)[C@H](C)NC(=O)[C@H](CC(C)C)NC(=O)[C@H](CCCNC(=N)N)NC(=O)[C@H](CCC(N)=O)NC(=O)[C@@H](NC(=O)[C@@H](NC(=O)[C@@H]1CSSC[C@H](NC(=O)CN)C(=O)N[C@@H](CCCNC(=N)N)C(=O)N[C@@H]([C@@H](C)O)C(=O)NCC(=O)N[C@@H]([C@@H](C)O)C(=O)N1)[C@@H](C)O)C(C)C)C(=O)N[C@@H](Cc1ccc(O)cc1)C(=O)N[C@@H](CCC(N)=O)C(=O)N[C@@H](Cc1ccccc1)C(=O)N[C@H](C(=O)N[C@@H](CC(=O)O)C(=O)N[C@@H](CCCCN)C(=O)N[C@@H](Cc1ccccc1)C(=O)N[C@@H](CCCCN)C(=O)N[C@@H](CC(=O)O)C(=O)N[C@@H](CC(N)=O)C(=O)N[C@H](C(=O)N[C@@H](C)C(=O)N1CCC[C@H]1C(=O)N[C@@H](CCCNC(=N)N)C(=O)N[C@@H](CO)C(=O)N[C@@H](CCCCN)C(=O)N[C@H](C(=O)N[C@@H](CO)C(=O)N1CCC[C@H]1C(=O)N[C@@H](CCC(N)=O)C(=O)N[C@H](C(=O)N[C@@H](Cc1ccc(O)cc1)C(N)=O)[C@@H](C)O)[C@@H](C)CC)C(C)C)[C@@H](C)O [compound 230] (H-GCRTGTCTVQRLAHQIYQFTDKFKDNVAPRSKISPQTY-NH2; disulfide 2-7; N-terminus assumed)	> 5	0.600
CC[C@H](C)[C@H](NC(=O)[C@H](CCCCN)NC(=O)[C@H](CO)NC(=O)[C@H](CCCNC(=N)N)NC(=O)[C@@H]1CCCN1C(=O)[C@H](C)NC(=O)[C@@H](NC(=O)[C@H](CC(N)=O)NC(=O)[C@H](CC(=O)O)NC(=O)[C@H](CCCCN)NC(=O)[C@H](CC(=O)O)NC(=O)[C@H](CCCCN)NC(=O)[C@H](CC(=O)O)NC(=O)[C@@H](NC(=O)[C@H](Cc1ccccc1)NC(=O)[C@H](CCC(N)=O)NC(=O)[C@H](Cc1ccc(O)cc1)NC(=O)[C@@H](NC(=O)[C@H](CCC(N)=O)NC(=O)[C@H](Cc1c[nH]cn1)NC(=O)[C@H](C)NC(=O)[C@H](CC(C)C)NC(=O)[C@H](Cc1c[nH]c2ccccc12)NC(=O)[C@H](CCC(N)=O)NC(=O)[C@@H](NC(=O)[C@@H](NC(=O)[C@@H]1CSSC[C@H](NC(=O)CN)C(=O)N[C@@H](CCCNC(=N)N)C(=O)N[C@@H]([C@@H](C)O)C(=O)NCC(=O)N[C@@H]([C@@H](C)O)C(=O)N1)[C@@H](C)O)C(C)C)[C@@H](C)CC)[C@@H](C)O)C(C)C)C(=O)NCC(=O)N1CCC[C@H]1C(=O)N[C@@H](CC(N)=O)C(=O)NCC(=O)N1C[C@H](O)C[C@H]1C(N)=O [compound 355] (H-GCRTGTCTVQWLAHQIYQFTDKDKDNVAPRSKIGPNG[Hyp]-NH2; disulfide 2-7; N-terminus assumed)	> 5	25.350
CC[C@H](C)[C@H](NC(=O)[C@H](CCC(N)=O)NC(=O)[C@H](Cc1c[nH]cn1)NC(=O)[C@H](C)NC(=O)[C@H](CC(C)C)NC(=O)[C@H](CCCNC(=N)N)NC(=O)[C@H](CCC(N)=O)NC(=O)[C@@H](NC(=O)[C@@H](NC(=O)[C@@H]1CSSC[C@H](NC(=O)CN)C(=O)N[C@@H](CCCNC(=N)N)C(=O)N[C@@H]([C@@H](C)O)C(=O)NCC(=O)N[C@@H]([C@@H](C)O)C(=O)N1)[C@@H](C)O)C(C)C)C(=O)N[C@@H](Cc1ccc(O)cc1)C(=O)N[C@@H](CCC(N)=O)C(=O)N[C@@H](Cc1ccccc1)C(=O)N[C@H](C(=O)N[C@@H](CC(N)=O)C(=O)N[C@@H](CCCCN)C(=O)N[C@@H](CC(=O)O)C(=O)N[C@@H](CCCCN)C(=O)N[C@@H](CC(=O)O)C(=O)N[C@@H](CC(N)=O)C(=O)N[C@H](C(=O)N[C@@H](C)C(=O)N1CCC[C@H]1C(=O)N[C@@H](CCCNC(=N)N)C(=O)N[C@@H](CO)C(=O)N[C@@H](CCCCN)C(=O)N[C@H](C(=O)N[C@@H](CO)C(=O)N1CCC[C@H]1C(=O)N[C@@H](CCC(N)=O)C(=O)N[C@H](C(=O)N[C@@H](CCCNC(=N)N)C(N)=O)[C@@H](C)O)[C@@H](C)CC)C(C)C)[C@@H](C)O [compound 242] (H-GCRTGTCTVQRLAHQIYQFTNKDKDNVAPRSKISPQTR-NH2; disulfide 2-7; N-terminus assumed)	> 5	0.800
CC[C@H](C)[C@H](NC(=O)[C@H](CCC(N)=O)NC(=O)[C@H](Cc1c[nH]cn1)NC(=O)[C@H](C)NC(=O)[C@H](CC(C)C)NC(=O)[C@H](Cc1c[nH]c2ccccc12)NC(=O)[C@H](CCC(N)=O)NC(=O)[C@@H](NC(=O)[C@@H](NC(=O)[C@@H]1CSSC[C@H](NC(=O)CN)C(=O)N[C@@H](CCCNC(=N)N)C(=O)N[C@@H]([C@@H](C)O)C(=O)NCC(=O)N[C@@H]([C@@H](C)O)C(=O)N1)[C@@H](C)O)C(C)C)C(=O)N[C@@H](Cc1ccc(O)cc1)C(=O)N[C@@H](CCC(N)=O)C(=O)N[C@@H](Cc1ccccc1)C(=O)N[C@H](C(=O)N[C@@H](CC(=O)O)C(=O)N[C@@H](CCCCN)C(=O)N[C@@H](CC(=O)O)C(=O)N[C@@H](CCCCN)C(=O)N[C@@H](CC(=O)O)C(=O)N[C@@H](CC(N)=O)C(=O)N[C@H](C(=O)N[C@@H](C)C(=O)N1CCC[C@H]1C(=O)N[C@@H](CCCNC(=N)N)C(=O)N[C@H](C(=O)N[C@@H](CCCCN)C(=O)N[C@H](C(=O)NCC(=O)N1CCC[C@H]1C(=O)N[C@@H](CCC(N)=O)C(=O)NCC(=O)N1C[C@H](O)C[C@H]1C(N)=O)C(C)C)[C@@H](C)O)C(C)C)[C@@H](C)O [compound 349] (H-GCRTGTCTVQWLAHQIYQFTDKDKDNVAPRTKVGPQG[Hyp]-NH2; disulfide 2-7; N-terminus assumed)	> 5	15.250
CC(C)C[C@H](NC(=O)[C@H](CCCNC(=N)N)NC(=O)[C@H](CCC(N)=O)NC(=O)[C@@H](NC(=O)[C@@H](NC(=O)[C@@H]1CSSC[C@H](NC(=O)[C@@H](N)CCCCN)C(=O)N[C@@H](CC(N)=O)C(=O)N[C@@H]([C@@H](C)O)C(=O)N[C@@H](C)C(=O)N[C@@H]([C@@H](C)O)C(=O)N1)[C@@H](C)O)C(C)C)C(=O)N[C@@H](C)C(=O)N[C@@H](Cc1c[nH]cn1)C(=O)N[C@@H](CCC(N)=O)C(=O)N[C@@H](C)C(=O)N[C@@H](Cc1ccc(O)cc1)C(=O)N[C@@H](CCC(N)=O)C(=O)N[C@@H](Cc1ccccc1)C(=O)N[C@H](C(=O)N[C@@H](CC(=O)O)C(=O)N[C@@H](CCCCN)C(=O)N[C@@H](CC(=O)O)C(=O)N[C@@H](CCCCN)C(=O)N[C@@H](CC(=O)O)C(=O)N[C@@H](CC(N)=O)C(=O)N[C@H](C(=O)N[C@@H](C)C(=O)N1CCC[C@H]1C(=O)N1CCC[C@H]1C(=O)N[C@H](C(=O)N[C@@H](CC(N)=O)C(=O)N[C@H](C(=O)NCC(=O)N[C@@H](CO)C(=O)N[C@@H](CC(N)=O)C(=O)NCC(=O)N1C[C@H](O)C[C@H]1C(N)=O)C(C)C)[C@@H](C)O)C(C)C)[C@@H](C)O [compound 210] (H-KCNTATCTVQRLAHQAYQFTDKDKDNVAPPTNVGSNG[Hyp]-NH2; disulfide 2-7)	> 5	1.400
CC[C@H](C)[C@H](NC(=O)[C@H](CCCCN)NC(=O)[C@@H](NC(=O)[C@H](CCCNC(=N)N)NC(=O)[C@@H]1CCCN1C(=O)[C@H](C)NC(=O)[C@@H](NC(=O)[C@H](CC(N)=O)NC(=O)[C@H](CC(=O)O)NC(=O)[C@H](CCCCN)NC(=O)[C@H](CC(=O)O)NC(=O)[C@H](CCCCN)NC(=O)[C@H](CC(=O)O)NC(=O)[C@@H](NC(=O)[C@H](Cc1ccccc1)NC(=O)[C@H](CCC(N)=O)NC(=O)[C@H](Cc1ccc(O)cc1)NC(=O)[C@@H](NC(=O)[C@H](CCC(N)=O)NC(=O)[C@H](Cc1c[nH]cn1)NC(=O)[C@H](C)NC(=O)[C@H](CC(C)C)NC(=O)[C@H](Cc1c[nH]c2ccccc12)NC(=O)[C@H](CCC(N)=O)NC(=O)[C@@H](NC(=O)[C@@H](NC(=O)[C@@H]1CSSC[C@H](NC(=O)CN)C(=O)N[C@@H](CCCNC(=N)N)C(=O)N[C@@H]([C@@H](C)O)C(=O)NCC(=O)N[C@@H]([C@@H](C)O)C(=O)N1)[C@@H](C)O)C(C)C)[C@@H](C)CC)[C@@H](C)O)C(C)C)[C@@H](C)O)C(=O)NCC(=O)N1CCC[C@H]1C(=O)N[C@@H](CCC(N)=O)C(=O)NCC(=O)N1C[C@H](O)C[C@H]1C(N)=O [compound 357] (H-GCRTGTCTVQWLAHQIYQFTDKDKDNVAPRTKIGPQG[Hyp]-NH2; disulfide 2-7; N-terminus assumed)	> 5	19.750
